# Legend:
# [1] = biological target: T1, ADAMTS5 (Homo sapiens, UniProt Q9UNA0); experiment: Versicanase assay (V1-5GAG, versikine sandwich ELISA); format: biochemical
# T1 construct: Human recombinant full-length FLAG-tagged ADAMTS4 and ADAMTS5 were expressed in HEK293T cells; FLAG; made in house; host or cells: HEK293T cells
# T1 sequence (Q9UNA0 262-930): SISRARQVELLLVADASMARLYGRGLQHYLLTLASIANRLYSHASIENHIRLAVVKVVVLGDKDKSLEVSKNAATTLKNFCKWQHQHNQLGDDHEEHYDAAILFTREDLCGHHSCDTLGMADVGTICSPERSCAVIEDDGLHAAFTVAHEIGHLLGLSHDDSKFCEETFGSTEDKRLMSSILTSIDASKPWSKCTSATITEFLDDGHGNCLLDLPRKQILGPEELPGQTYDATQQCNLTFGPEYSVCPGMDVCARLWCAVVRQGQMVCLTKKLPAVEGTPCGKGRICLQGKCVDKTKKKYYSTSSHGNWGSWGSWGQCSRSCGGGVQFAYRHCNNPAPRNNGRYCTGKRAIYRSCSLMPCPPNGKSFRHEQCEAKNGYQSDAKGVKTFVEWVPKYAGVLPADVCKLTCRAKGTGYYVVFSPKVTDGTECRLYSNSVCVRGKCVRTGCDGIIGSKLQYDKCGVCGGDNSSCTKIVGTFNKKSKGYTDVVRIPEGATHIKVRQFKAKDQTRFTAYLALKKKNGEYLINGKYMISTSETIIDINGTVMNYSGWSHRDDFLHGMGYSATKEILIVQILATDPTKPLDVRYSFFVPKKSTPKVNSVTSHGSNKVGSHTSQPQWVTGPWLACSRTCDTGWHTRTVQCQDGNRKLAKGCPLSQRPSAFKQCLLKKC
# Procedure: Human recombinant full-length FLAG-tagged ADAMTS4 and ADAMTS5 were expressed in HEK293T cells (Thermo Fisher Scientific) and purified by anti-FLAG immunoaffinity chromatography as before. Concentrations of active proteases were determined by active-site titrations with known concentrations of TIMP-3 (Bio-Techne, 973-TM-010), using QF peptides as substrates. V1-5GAG, a truncated version of versican V1 isoform comprising residues 21–694 and containing a C-terminal 6x His tag[67], was expressed in HE293T cells and purified by immobilized metal affinity chromatography as before.
# Compounds 1–4 (100 µM) or DMSO were incubated with ADAMTS4 (5 nM) or ADAMTS5 (0.4 nM) for 2 h at 37 °C, before addition of V1-5GAG (50 nM). At each time point, reactions were stopped by addition of ethylenediaminetetraacetic acid and ADAMTS-generated versican fragments (versikine) quantified by sandwich ELISA as before[29],[30],[38] using anti-DPEAAE neoepitope antibody (Life Technologies, PA1-1748 A, 5 µg/ml) and polyclonal anti-versican antibody (Abcam, ab171887, 3 µg/ml). For each reaction, the amount of versikine generated was derived from a standard curve (0–1.56 nM) of V1-5GAG completely digested with ADAMTS5. Initial velocities were calculated from the concentration of versikine generated as a function of reaction time. Percent of inhibition was calculated from the DMSO control reactions. IC50 values were determined using the formula: vi/v0 = 1/(1 + [I]/IC50) where vi is the initial velocity of substrate cleavage in the presence of the inhibitor at concentration [I] and v0 is the initial velocity in the presence of an equal concentration (v/v) of DMSO.
# [2] = Solubility determination in PBS by UV-Vis absorbance at 284 nm; format: physicochemical; conditions: PBS buffer, aqueous buffer, kinetic from dmso stock, pH 7.4, room temperature, read-out: upper solubility limit
# Procedure: The solubility of compounds 4b and 2 was assessed in PBS at pH 7.4 and room temperature. Stock solutions of the compounds (10 mM in DMSO) were diluted in PBS buffer to achieve final concentrations between 1,000 µM − 12.5 µM. Two-hundred microliters of the proper compound solutions in PBS buffer were added in a 96-well plate, and the absorbance was measured at 284 nm using a SPECTROstar Nano UV-Vis spectrophotometer (220–1,000 nm, Ortenberg, Germany). Analyses were performed in triplicate, and the mean value was calculated for each sample.
# [3] = tested on: A2780 OC cells over-expressing Rab25; experiment: OC cell migration on cell-derived matrix (pseudopod length, directionality, velocity); format: cell-based; conditions: cells on CDM
# Procedure: A2780 OC cells over-expressing Rab25 (A2780-Rab25), generated in G. Mills lab[71], and telomerase-immortalised human fibroblasts (TIFs) were a gift from Jim Norman lab (CRUK Scotland Institute). A2780-Rab25 cells were grown in RPMI media (Gibco), supplemented with 10% (v/v) FBS. TIFs were grown in DMEM, supplemented with 10% FBS. To maintain Rab25 over-expression, A2780-Rab25 cells were selected with 0.4 mg/ml G418 every 10 passages.
# CDMs were generated as previously described[72] in 12 well plates. Wells were coated with 0.2% gelatin for 60 min at 37 °C, crosslinked with 1% glutaraldehyde for 30 min at room temperature, quenched with 1 M glycine for 20 min at room temperature and equilibrated in DMEM for 30 min at 37 °C. TIFs (2.5 × 10^5 per well) were seeded for 24 h to achieve confluency and grown in the presence of 50 µg/ml ascorbic acid for 9 days. CDMs were washed with PBS, incubated with extraction buffer (20 mM NH4OH, 0.5% Triton X-100 in PBS with Ca^2+ and Mg^2+) for ~ 2 min, until no intact cells were visible by phase, washed twice with PBS with Ca^2+ and Mg^2+ and treated with 15 µg/ml DNase for 1 h at 37 °C, 5% CO2. CDMs were washed twice with PBS with Ca^2+ and Mg^2+ and stored in PBS with Ca^2+ and Mg^2+ at 4 °C for up to one month.
# A2780-Rab25 cells (5 × 10^4 per well) were seeded onto a CDM-coated 12-well plate. Compound 2 was added 4 h after plating. Plates were imaged in a Nikon Inverted Ti eclipse microscope with Oko-lab environmental control chamber with a 10x/NA 0.45 objective. Cells were incubated at 37 °C and 5% CO2, images were acquired every 10 min for 12 h and more than 40 cells per well were quantified per biological replicate. Individual cell migration was manually tracked using MTrack2, a Fiji/ImageJ plugin. The chemotaxis tool plugin in Fiji/Image J (https://ibidi.com/chemotaxis-analysis/171-chemotaxis-and-migration-tool.html) was used to calculate the velocity and directionality of migrating cells.
# [4] = tested at 10 or 50 µM, concentration of this value not stated
smiles,measurement,setting,value
"CCC(C)N(Cc1cn(CCCO[C@@H]2O[C@H](CO)[C@@H](O[C@@H]3O[C@H](CO)[C@H](O)[C@H](O)[C@H]3O)[C@H](O)[C@H]2NC(C)=O)nn1)S(=O)(=O)c1ccc(-c2ccccc2)cc1 (stereo partly drawn) [compound 2, N-((2R,3R,4R,5 S,6R)-2-(3-(4-((N-(sec-butyl)-[1,1’-biphenyl]-4-sulfonamido)methyl)-1H-1,2,3-triazol-1-yl)propoxy)-4-hydroxy-6-(hydroxymethyl)-5-(((2 S,3R,4 S,5R,6R)-3,4,5-trihydroxy-6-(hydroxymethyl)tetrahydro-2 H-pyran-2-yl)oxy)tetrahydro-2 H-pyran-3-yl)acetamide]",inhibition at 100 µM,"[1]; 100 µM, compared to DMSO control",76%
same,IC50 of compound 2 relative to parent compound 4b (higher),[1]; ADAMTS5 versicanase activity,~ 4 fold
same,IC50,[1]; read-out: IC50 for inhibition of ADAMTS5 versicanase activity,35 ± 4.8 µM
same,solubility,[2],300 µM
same,velocity of cell migration,[3]; 10 or 50 µM,without affecting
same,inhibition in directionality of cell migration,[3]; [4],43%
same,inhibition in pseudopod elongation,[3]; [4],35%

# — PMC12769565, “Design, synthesis and biological activity of glycoconjugated ADAMTS5 exosite inhibitors: applications in osteoarthritis and ovarian cancer models” (Scientific Reports, 2025)
